{
  "source": "patent US20080004236A1",
  "about": "“High Dose, Short Interval Use of Sulfated Polysaccharides for Treatment of Infections” (priority 2004, published 2008)",
  "key": {"[1]": {"conditions": "maximally tolerated dose, continuous infusion up to 14 days, subjects with symptomatic HIV infection; cited from earlier work"}, "[2]": {"experiment": "Maximum tolerated dose in rats"}, "[3]": {"experiment": "Maximum tolerated dose in dogs"}, "[4]": {"experiment": "Maximum tolerated dose in monkeys"}},
  "data": [
    {"substance": "dextran sulfate [listing 1 of 3 here]", "values": [
      {"measurement": "toxicity of continuous intravenous infusion", "setting": "[1]", "result": "toxic"}
    ]},
    {"substance": "dextran sulfate [listing 2 of 3 here]", "values": [
      {"measurement": "maximum tolerated dose (MTD)", "setting": "[2]", "result": "about 800 mg/kg/day"}
    ]},
    {"substance": "dextran sulfate [listing 3 of 3 here]", "values": [
      {"measurement": "maximum tolerated dose (MTD)", "setting": "[3]", "result": "about 500 mg/kg/day"},
      {"measurement": "maximum tolerated dose (MTD)", "setting": "[4]", "result": "about 300 mg/kg/day"}
    ]}
  ]
}
